The values that follow come from paper PMC6639853, “Deciphering Direct and Indirect Effects of Neurokinin B and GnRH in the Brain-Pituitary Axis of Tilapia” (Frontiers in Endocrinology, 2019).

One assay relates to female tilapia pituitary. Put plainly: In vivo effect on pituitary gh, fsh and lh mRNA expression (real-time PCR). Details: species or system Nile tilapia (O. niloticus). The settings on record: 24 h post IP injection, 100 μg/kg BW. As to the method: Adult female tilapia (BW 89.29 ± 32.93 g) were injected IP with saline, sGnRH analog ([…]; 10 μg/kg BW; [[…],[…]-Net]-mammalian GnRH; Bachem), tiNKB, tiNKF, or their analogs at 100 μg/kg BW (n = 8 fish per group). The fish were bled from the caudal blood vessels into heparinized syringes 1, 2, 4, 8, and 24 h after injection and blood was centrifuged (3,200 rpm for 30 min at 4°C) to obtain plasma samples, which were stored at -20°C until assayed. This time course is according to standard protocols used previously ([28], [29]) to test the effect of GnRH and other hypothalamic neuropeptides on circulating levels of LH, FSH, and GH in tilapia. Blood samples were collected from the caudal vasculature. Three independent experiments were carried out for the in vivo studies. Pituitaries and three parts of the brain [the olfactory bulbs and telencephalon (front brain), the optic tectum and diencephalon (mid brain), and the cerebellum (hind brain)] were harvested at the end of each in vivo experiment, snap-frozen in liquid nitrogen, and stored at -80°C until extraction. Total RNA was extracted by phenol-chloroform using TRIzol reagent (Invitrogen) and precipitated with ethanol, and 1 μg was used as a template for cDNA synthesis using Verso cDNA kit (Thermo Scientific, Waltham, MA). Real-time PCR analysis was performed according to Biran et al. ([10], [20]). The specificity of the amplification was tested at the end of the PCR by melting-curve analysis and sequencing the PCR products.

For the next assay, the target named is T1, huTAC3R (NK3R) (Homo sapiens, UniProt P29371).
T1 construct: host or cells: COS-7
T1 sequence (P29371 1-465): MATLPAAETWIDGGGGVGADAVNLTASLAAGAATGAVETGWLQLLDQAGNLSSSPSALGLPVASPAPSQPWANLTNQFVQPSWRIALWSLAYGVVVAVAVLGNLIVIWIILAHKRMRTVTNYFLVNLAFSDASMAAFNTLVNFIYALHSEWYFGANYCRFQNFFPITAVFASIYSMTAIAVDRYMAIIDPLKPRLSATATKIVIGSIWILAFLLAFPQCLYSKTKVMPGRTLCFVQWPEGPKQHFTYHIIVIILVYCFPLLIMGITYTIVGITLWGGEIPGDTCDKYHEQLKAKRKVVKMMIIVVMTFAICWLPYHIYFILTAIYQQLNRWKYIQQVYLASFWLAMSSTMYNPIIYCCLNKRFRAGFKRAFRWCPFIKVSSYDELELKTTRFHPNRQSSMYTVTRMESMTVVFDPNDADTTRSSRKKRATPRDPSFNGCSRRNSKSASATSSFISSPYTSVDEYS
The assay is described as follows: CRE-/SRE-Luc receptor transactivation reporter assay in COS-7 cells, human TAC3R. The settings on record: mean ± SEM. In kind it is cell-based. An excerpt: (§1) Receptor transactivation assays were generally performed according to Biran et al. ([10]). Briefly, in order to study the signaling pathways of the novel fish NKB and NKF analogs, the entire coding sequence of tiTac3ra (GenBank accession no. KF471674), tiTac3rb (GenBank accession no. KF471675), zfTac3ra (GenBank accession no. JF317292) and zfTac3rb (GenBank accession no. JF317293) were inserted into pcDNA3.1 (Invitrogen). To differentiate between the protein kinase A (PKA) and PKC signal transduction pathways, we used a sensitive luciferase (Luc) reporter gene assay. […] The cDNA clone for human TAC3R was obtained from the Missouri S&T cDNA Resource Center (www.cdna.org). Three micrograms of each construct together with three micrograms of a luciferase reporter plasmid were transiently co-transfected into COS-7 cells. […] EC50 values were calculated from dose response curves by means of computerized non-linear curve fitting on baseline-corrected (control) values using Prism version 6 software (GraphPad).

For assay [1], the target named is T2, tiTac3ra (Oreochromis niloticus, UniProt A0A075QPN8). The assay is described as follows: cell-based. Particulars: COS-7 cells, mean ± SEM.
T2 sequence (A0A075QPN8 1-415): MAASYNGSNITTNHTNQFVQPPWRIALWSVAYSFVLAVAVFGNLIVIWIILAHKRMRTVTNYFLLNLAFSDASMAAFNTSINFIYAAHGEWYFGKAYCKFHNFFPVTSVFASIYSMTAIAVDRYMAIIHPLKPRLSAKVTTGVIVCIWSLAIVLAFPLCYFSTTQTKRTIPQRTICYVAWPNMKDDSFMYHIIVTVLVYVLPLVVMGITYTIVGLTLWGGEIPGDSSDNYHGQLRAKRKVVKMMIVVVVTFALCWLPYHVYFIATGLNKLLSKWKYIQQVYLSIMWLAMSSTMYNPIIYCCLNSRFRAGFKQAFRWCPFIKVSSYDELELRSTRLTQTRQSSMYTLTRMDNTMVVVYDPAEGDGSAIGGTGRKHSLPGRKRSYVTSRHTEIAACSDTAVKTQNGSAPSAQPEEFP
Description: (§2) Receptor transactivation assays were generally performed according to Biran et al. ([10]). Briefly, in order to study the signaling pathways of the novel fish NKB and NKF analogs, the entire coding sequence of tiTac3ra (GenBank accession no. KF471674), tiTac3rb (GenBank accession no. KF471675), zfTac3ra (GenBank accession no. JF317292) and zfTac3rb (GenBank accession no. JF317293) were inserted into pcDNA3.1 (Invitrogen). To differentiate between the protein kinase A (PKA) and PKC signal transduction pathways, we used a sensitive luciferase (Luc) reporter gene assay. […] Three micrograms of each construct together with three micrograms of a luciferase reporter plasmid were transiently co-transfected into COS-7 cells. […] EC50 values were calculated from dose response curves by means of computerized non-linear curve fitting on baseline-corrected (control) values using Prism version 6 software (GraphPad).
Another assay concerns the target tiTac3rb (Oreochromis niloticus, UniProt A0A075QUD7). Put plainly: cell-based. The settings on record: COS-7 cells, mean ± SEM.
The next assay has as its system female tilapia. Put plainly: In vivo effect on GH, FSH and LH plasma levels (ELISA) after IP injection. On the set-up: species or system Nile tilapia (O. niloticus). Particulars: peptides/analogs 100 μg/kg BW. How it is done: Adult female tilapia (BW 89.29 ± 32.93 g) were injected IP with saline, sGnRH analog ([…]; 10 μg/kg BW; [[…],[…]-Net]-mammalian GnRH; Bachem), tiNKB, tiNKF, or their analogs at 100 μg/kg BW (n = 8 fish per group). The fish were bled from the caudal blood vessels into heparinized syringes 1, 2, 4, 8, and 24 h after injection and blood was centrifuged (3,200 rpm for 30 min at 4°C) to obtain plasma samples, which were stored at -20°C until assayed. This time course is according to standard protocols used previously ([28], [29]) to test the effect of GnRH and other hypothalamic neuropeptides on circulating levels of LH, FSH, and GH in tilapia. Blood samples were collected from the caudal vasculature. Three independent experiments were carried out for the in vivo studies. Levels of LH, FSH, and GH in the plasma were measured by specific competitive ELISAs developed for tilapia ([30], [31]) based on recombinant ([…] or rtiGH. Primary antisera was produced against […]β, or rtGH ([31]), and […]βα ([28]) or rtGH was used for generating the standard curves.

A further assay has as its target T3, zfTac3ra (Danio rerio, UniProt H6A6A7).
T3 sequence (H6A6A7 1-399): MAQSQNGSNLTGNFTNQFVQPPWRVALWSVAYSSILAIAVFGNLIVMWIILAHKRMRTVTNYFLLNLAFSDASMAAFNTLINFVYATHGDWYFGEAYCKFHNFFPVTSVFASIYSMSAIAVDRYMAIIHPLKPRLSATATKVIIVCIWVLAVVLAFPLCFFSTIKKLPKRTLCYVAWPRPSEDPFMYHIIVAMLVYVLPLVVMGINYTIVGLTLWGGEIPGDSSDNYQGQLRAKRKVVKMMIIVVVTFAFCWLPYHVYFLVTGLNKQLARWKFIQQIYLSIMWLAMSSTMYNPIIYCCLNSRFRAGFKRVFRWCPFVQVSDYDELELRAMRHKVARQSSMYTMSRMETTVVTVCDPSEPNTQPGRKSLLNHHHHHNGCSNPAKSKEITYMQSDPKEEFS
The assay is described as follows: CRE-/SRE-Luc receptor transactivation reporter assay in COS-7 cells, zebrafish Tac3ra. It counts as cell-based. Particulars: mean ± SEM.
Description: as §1

Another assay has as its target T4, zfTac3rb (Danio rerio, UniProt F1R3V0).
T4 sequence (F1R3V0 1-395): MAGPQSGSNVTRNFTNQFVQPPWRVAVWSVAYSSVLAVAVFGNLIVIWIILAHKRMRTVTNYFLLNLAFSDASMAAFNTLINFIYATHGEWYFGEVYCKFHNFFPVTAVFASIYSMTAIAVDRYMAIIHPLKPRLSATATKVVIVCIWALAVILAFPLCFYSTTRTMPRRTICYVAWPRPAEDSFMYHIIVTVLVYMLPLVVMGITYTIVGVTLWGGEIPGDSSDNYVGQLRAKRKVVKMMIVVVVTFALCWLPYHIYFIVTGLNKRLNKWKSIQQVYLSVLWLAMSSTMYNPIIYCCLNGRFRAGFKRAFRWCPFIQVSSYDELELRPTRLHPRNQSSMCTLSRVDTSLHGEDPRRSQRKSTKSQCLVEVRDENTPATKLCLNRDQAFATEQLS
Put plainly: CRE-/SRE-Luc receptor transactivation reporter assay in COS-7 cells, zebrafish Tac3rb. The settings on record: mean ± SEM. It counts as cell-based.
Description: as §1

Assay [2] deals with T2, tiTac3ra. Particulars: read-out: EC50 tiTac3ra SRE; SRE-Luc reporter (PKC/Ca2+), COS-7 cells, mean ± SEM.
Description: as §2
Where [3] appears, read: SRE-Luc reporter (PKC/Ca2+), read-out: EC50 huTAC3R (NK3R) SRE.
Setting [4] is: EC50 tiTac3ra CRE, CRE-Luc reporter (PKA/cAMP).
[5] abbreviates: EC50 tiTac3ra SRE, SRE-Luc reporter (PKC/Ca2+).
Setting [6] is: EC50 tiTac3rb CRE, CRE-Luc reporter (PKA/cAMP).
Where [7] appears, read: EC50 tiTac3rb SRE, SRE-Luc reporter (PKC/Ca2+).

“And” between values parts separate entries of the source, which are not always exact repeats. Equal entries are not always repeated. Where two headings read alike, the source gives them in different places. Starred links: 1 amine or outer side, 2 acyl side, 3 side chain; linkers in the order of their positions; H or OH if unused. Non-standard residues stand in square brackets, D forms with d. Residues, ends and D or L forms follow the SMILES beside them. NMeF = CN[C@@H](Cc1ccccc1)C(=O)O; pGlu = O=C1CC[C@@H](C(=O)O)N1; Suc = O=C(CCC(=O)[*:2])[*:1]

Sequence of tiTac3rb (A0A075QUD7 1-361): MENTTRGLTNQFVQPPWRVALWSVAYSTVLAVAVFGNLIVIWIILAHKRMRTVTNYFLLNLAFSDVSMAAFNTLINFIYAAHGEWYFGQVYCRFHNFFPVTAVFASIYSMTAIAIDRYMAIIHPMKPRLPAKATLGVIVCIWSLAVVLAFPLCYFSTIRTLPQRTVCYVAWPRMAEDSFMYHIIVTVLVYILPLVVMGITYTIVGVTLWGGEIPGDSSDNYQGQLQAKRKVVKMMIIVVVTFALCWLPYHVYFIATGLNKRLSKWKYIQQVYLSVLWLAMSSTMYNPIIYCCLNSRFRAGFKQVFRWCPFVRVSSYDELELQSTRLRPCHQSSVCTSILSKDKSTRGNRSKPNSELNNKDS
Description for tiTac3rb: as §2

On to `CSCC[C@H](NC(=O)[C@H](CC(C)C)NC(=O)CNC(=O)[C@H](C(C)C)N(C)C(=O)[C@H](Cc1ccccc1)NC(=O)[C@H](CO)NC(=O)[C@H](CC(=O)O)NC(=O)CCC(=O)O)C(N)=O` [NKF analog, Succ-Asp-Ser-Phe-N(Me)Val-Gly-Leu-Met-NH2], for which the “GH mRNA expression in pituitary relative to control” value with female tilapia pituitary was “increased”. Besides, the “LHβ mRNA expression in pituitary relative to control” value in the assay with female tilapia pituitary is given as “increased”. Besides, the concentration giving a half-maximal response (EC50) was 43.2 ± 1.06 nM on huTAC3R (NK3R) (setting [3]); 2.57 ± 0.33 nM on tiTac3ra [1] (setting [4]); 1.73 ± 0.46 nM at tiTac3ra [1] (setting [5]); 160.6 ± 0.42 nM on tiTac3rb (setting [6]); 74.89 ± 0.66 nM at tiTac3rb (setting [7]); 0.47 nM and 0.474 nM on zfTac3ra (CRE-Luc reporter (PKA/cAMP), read-out: EC50 zfTac3ra CRE). In addition, the EC50 at zfTac3ra (SRE-Luc reporter (PKC/Ca2+), read-out: EC50 zfTac3ra SRE) is 1.15 ± 0.4 nM; at zfTac3rb (CRE-Luc reporter (PKA/cAMP), read-out: EC50 zfTac3rb CRE) it was 2.69 ± 0.38 nM; on zfTac3rb (SRE-Luc reporter (PKC/Ca2+), read-out: EC50 zfTac3rb SRE), 25.74 ± 0.24 nM. For the same compound, the “time post-injection at which plasma FSH was first increased” value in the assay on female tilapia is given as 2 h. The “time post-injection at which plasma LH was first increased” value with female tilapia (sGnRHa 10 μg/kg BW) is reported as 1 h.
Regarding `CSCC[C@H](NC(=O)[C@H](CC(C)C)NC(=O)CNC(=O)[C@H](Cc1ccccc1)N(C)C(=O)[C@H](Cc1ccccc1)NC(=O)[C@H](CC(=O)O)NC(=O)CCC(=O)O)C(N)=O` [Senktide] (Suc-DF[NMeF]GLM-NH2), the EC50 on tiTac3ra [2] amounted to 128 ± 35 nM; at tiTac3ra [1] (setting [4]) it was 14.1 ± 0.61 nM; at tiTac3rb (setting [6]), 3541 ± 1.47 nM; at tiTac3rb (setting [7]) it was 50.16 ± 0.17 nM.
`CC[C@H](C)[C@H](NC(=O)[C@H](Cc1ccccc1)NC(=O)[C@@H](NC(=O)[C@H](CC(=O)O)NC(=O)[C@H](CC(=O)O)NC(=O)[C@H](CCSC)NC(=O)[C@@H]1CCC(=O)N1)[C@@H](C)CC)C(=O)NCC(=O)N[C@@H](CC(C)C)C(=O)N[C@@H](CCSC)C(N)=O` [tiNKB] ([pGlu]MDDIFIGLM-NH2): in the assay on female tilapia pituitary, the “FSHβ mRNA expression in pituitary relative to control” value is given as “increased”, the “GH mRNA expression in pituitary relative to control” value is “increased” and the “LHβ mRNA expression in pituitary relative to control” value was “increased”. Moreover, on huTAC3R (NK3R) (CRE-Luc reporter (PKA/cAMP), read-out: EC50 huTAC3R (NK3R) CRE), the EC50 was 3.38 ± 0.42 nM. Besides, the EC50 on huTAC3R (NK3R) (setting [3]) was determined as 0.02 nM. Also, the EC50 at tiTac3ra [1] (setting [4]) is 0.8 nM and 0.81 nM. On tiTac3ra [1] (setting [5]), this compound came in with an EC50 of 7.41 ± 0.44 nM. For the same compound, the response at tiTac3rb (setting [6]) was half-maximal at 26.5 ± 0.27 nM (EC50). In the assay with female tilapia, the “time post-injection at which plasma FSH was first increased” value is given as 2 h and the “time post-injection at which plasma GH was first increased” value is on record as 1 h. For the same compound, in the assay with female tilapia (sGnRHa 10 μg/kg BW), the “duration of increased plasma LH post-injection” value is recorded as “up to 4 h” and the “time post-injection at which plasma LH was first increased” value was 2 h.
